In the test the test system is CEM cells HIV-1 protection, formazan growth assay. In words: NCI AIDS Antiviral Assay. Conditions: for IC50: measured here: growth of uninfected CEM cells. An outline of the steps: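 Screen of anti-HIV-1 activity in human CEM cells using a formazan-based growth measurement at five drug concentrations. Hits with 50% or greater protection were repeated, and confirmation required reproducible complete protection.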

Structures are written as SMILES. Active and inactive are the calls of the source.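 How the source made its calls: active means compounds giving half or more protection of infected cells from virus-caused growth loss, again on retest; inactive means the rest.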 Where a SMILES comes first, the peptide text is derived from it. The star is where a group is joined. Boc = CC(C)(C)OC(=O)*; OSu = O=C1CCC(=O)N1O* Bounds are passed on as bounds.

For the molecule `Cc1ccc(S(=O)(=O)C(CC(NC=O)S(=O)(=O)c2ccc(C)cc2)NC=O)cc1` (configuration not stated), the result was inactive.

Turning to `C=C1C2CCC3(C4C[C@@H]5C6(C)CCCC5([C@H](O4)N4CCO[C@H]46)[C@@H]3C2)C1OC(C)=O` (some centres not stated), the EC50 was more than 18.2 µM and the half-inhibitory concentration (IC50) is more than 18.2 µM.

For the molecule `COC(=O)[C@@H]1CN(C(=O)c2ccccc2)C(=O)N1C(=O)OCc1ccccc1`, the EC50 was more than 200 µM and the IC50 was more than 200 µM. Consider `COC1(c2ccc(C)cc2C)OC(=O)c2c(C)cccc21` (configuration not stated), for which the outcome was inactive. For the molecule `C[As+](C)(C)CC1OC(OCC(O)COS(=O)(=O)[O-])C(O)C1O` (configuration not stated), the outcome was inactive. For `CN1C(=O)C=C(C=Nc2ccc(-c3ccccc3)cc2)C2CCCCC21` (configuration not stated), the EC50 was more than 200 µM and the IC50 worked out at 2.29 µM.

Regarding `CC1C(c2ccc3c(c2)OCO3)c2cc3c(cc2OC1N1CCCC1)OCO3` (configuration not stated), the EC50 was more than 100 µM and the 50% inhibitory concentration (IC50) came to 47.9 µM.

Consider `CCC(C(=O)c1ccc(OC)c(OC)c1)N(C(=O)C(F)(F)F)C(C)c1ccccc1` (configuration not stated), for which the EC50 is more than 200 µM and the concentration for half-maximal inhibition (IC50) is more than 200 µM. For the molecule `CCOP(=O)(OCC)/C(C#N)=C/c1ccc(C)o1`, the EC50 was more than 933 µM and the IC50 was 129 µM. For `CS(=O)(=O)N1CC(CCl)c2ccc([N+](=O)[O-])cc21` (configuration not stated), in that order: 91.2 µM and more than 200 µM. With `CC(C)(C)OC(=O)NC(Cc1ccc(O)cc1)C(=O)NC(CCCCN)C(=O)NC(Cc1ccc(O)cc1)C(=O)NC(CCCCN)C(=O)ON1C(=O)CCC1=O` (configuration not stated) (Boc-YKYK-OSu; configuration not given here), the EC50 is more than 100 µM and the IC50 was more than 100 µM. Regarding `C=C(C)C(=O)NC(N)=NC#N`, the EC50 is more than 1620 µM and the IC50 came out at 28.8 µM. Turning to `O=C(Nc1cccc(NC(=O)c2nn[nH]n2)n1)c1nn[nH]n1`, the EC50 is more than 200 µM and the IC50 is more than 200 µM. On to `N#Cc1ccc(-c2ccc(Cl)cc2)n(C2OC(CO)C(O)C(O)C2O)c1=S` (configuration not stated), for which the EC50 was more than 200 µM and the IC50 was more than 200 µM. Consider `CC(=O)Oc1ccc(O)c(O)c1C/C=C(\C)CC/C=C(\C)CC/C=C(\C)CCC=C(C)C`, for which the result was inactive. With `OC(C1CCCC1=N/N=C1/CCCC1C(O)(C(F)(F)Cl)C(F)(F)Cl)(C(F)(F)Cl)C(F)(F)Cl` (configuration not stated), the EC50 was more than 50.1 µM and the IC50 was more than 50.1 µM.

On to `CCCCn1cc(C(=O)O)c(=O)c2c3sccc3ccc21`, for which the EC50 was more than 200 µM and the IC50 amounted to 22.4 µM. The like results for `Cc1cc2c(c(C)c1O)C(C)(C)CN2C(=O)C(C)(C)C` were, in that order, more than 200 µM and 74.1 µM. Consider `Cn1nc(NC(=O)c2cc(N)nn2C)cc1C(=O)Nc1ccc2cc(S(=O)(=O)O)cc(S(=O)(=O)O)c2c1`, for which the EC50 is more than 200 µM and the IC50 was more than 200 µM. For `C[C@@H]1C(=O)OCC2=C3C[C@@H](CC[C@@]3(C)C=CC2=O)[C@H](C)C(=O)OCC2=C3C[C@H]1CC[C@@]3(C)C=CC2=O`, the EC50 is more than 24.5 µM and the IC50 came out at 21.4 µM. Take `COc1ccc(C(=O)/C=C/c2ccc(OCC(=N)N)cc2)cc1OC`: the result was inactive. With `O=C(CN1CCN(c2cccc(Cl)c2)CC1)N1CCc2c([nH]c3ccccc23)C1c1cccnc1` (configuration not stated), the EC50 was more than 2.14 µM and the half-maximal inhibitory concentration (IC50) is more than 2.14 µM. `COc1ccc2c(c1)c1c(n2CCN(C)C)-c2cccc(OC)c2CC1`: the EC50 is more than 200 µM and the IC50 was 11 µM.

Consider `O=C(O)Cc1[nH]c(=O)[nH]c(=O)c1CCl`, for which the EC50 is more than 100 µM and the IC50 is more than 100 µM.

With `O=C(O)C1Cc2nc[nH]c2CN1` (configuration not stated), the outcome was inactive. Turning to `CCOC(=O)/C(N=O)=C(/O)CC(C)C`, the EC50 was more than 200 µM and the IC50 is more than 200 µM.

In the case of `Cn1ccc(=NS(=O)(=O)c2ccccc2)cc1`, the outcome was inactive. As for `COc1cc(-c2cc(-c3ccccc3)nc(-c3c(OC)ccc4c(C)cc(=O)oc34)c2)cc(OC)c1OC`, the EC50 was more than 200 µM and the IC50 is more than 200 µM.

For `COc1cc2c(cc1OC)C1=Cc3cc(OC)c(OC)cc3C(C)N1C=C2` (configuration not stated), the EC50 is more than 355 µM and the IC50 came out at 29.5 µM. `NC(=O)CS(=O)(=O)NC(N)=O`: the EC50 was more than 200 µM and the IC50 is more than 200 µM. `CCC(=O)N/S(=N/S(=O)(=O)c1ccccc1)C(Cl)(Cl)Cl` (configuration not stated): the EC50 was more than 200 µM and the IC50 is more than 200 µM.

`O=[N+]([O-])c1ccccc1SCc1ccccc1`: the EC50 is more than 55 µM and the IC50 stood at 50.1 µM. `Cc1ccnc2c1ccc1nc3ccccc3n12`: the EC50 was more than 200 µM and the half-maximal inhibitory concentration (IC50) was more than 200 µM.

For the molecule `O=C1C2Nc3ccccc3SC2C(=O)N1c1cccc([N+](=O)[O-])c1` (configuration not stated), the EC50 is more than 55 µM and the IC50 is more than 55 µM. On to `Cn1c2ccccc2c2[nH]c3ccccc3c(=O)c21`, for which the EC50 was more than 200 µM and the IC50 is 13.8 µM.

For `C=C1C(=O)O[C@H]2[C@H]3O[C@@H](C[C@@H]12)[C@@]1(C)CC[C@H](O1)[C@H](C)CCC[C@H]3C`, the EC50 is more than 20 µM and the IC50 was found to be 1.07 µM. `O=C(N/N=C/c1cc(Cl)cc(Cl)c1[OH2+])c1ccncc1.O=S(=O)([O-])[O-].[Fe+2]`: the outcome was inactive. Consider `CC(=O)C(N=Nc1ccc(S(=O)(=O)Nc2onc(C)c2C)cc1)C(=O)Nc1cc(C)cc(C)c1` (configuration not stated), for which the EC50 was more than 200 µM and the IC50 was 30.2 µM. For `CC(C)(CO)CNc1cc(=O)[nH]c(N)n1`, in that order: more than 200 µM and more than 200 µM.

Consider `Cc1ccc(S(=O)(=O)NNS(C)(=O)=O)cc1`, for which the EC50 is more than 955 µM and the IC50 was 646 µM. For `CN1CN(c2ccccc2)C2(CCN(CCCC3(c4cccs4)OCCO3)CC2)C1=O`, in that order: more than 200 µM and 107 µM. The like results for `N#CCCN(CCC#N)c1ccc(C(Sc2ccccc2)C(NC(=O)c2cc([N+](=O)[O-])ccc2Cl)C(=O)Sc2ccccc2)cc1` (configuration not stated) were, in that order, more than 10.7 µM and 3.55 µM.

`[Ni+2].[O-]/C(=N\N=C/c1ccccc1F)c1ccncc1.[O-]/C(=N\N=C\c1ccccc1F)c1ccncc1`: the EC50 was more than 100 µM and the IC50 was more than 100 µM. For `O=C1CSc2ccncc2N1`, the EC50 is more than 1510 µM and the IC50 is more than 1510 µM. Take `CC(=O)CC(N)=O`: the result was inactive. As for `CCOC(=O)C1C(=S)NC(=O)C1C#N` (configuration not stated), the outcome was inactive.

`CC12CP(=O)(c3ccccc3)CC1c1ccccc1C2c1ccccc1` (configuration not stated): the EC50 is more than 200 µM and the IC50 amounted to 31.6 µM. As for `CCOC(=O)C1=C(N)Oc2cc(O)cc(O)c2C1c1ccccc1` (configuration not stated), the outcome was inactive.

Turning to `COc1ccc(C(=O)/C=C/c2ccc(OCC(=O)N3CCN(c4ccccc4)CC3)cc2)cc1OC`, the outcome was inactive. The same measure, in the same setting: the value for `Cc1ccc(S(=O)(=O)CNC(=S)CCCC(=S)NCS(=O)(=O)c2ccc(C)cc2)cc1` was “inactive”.

In the case of `CCN(CC)CCN1C(=O)c2cccc3cc(N)cc(c23)C1=O`, the EC50 is more than 200 µM and the 50% inhibitory concentration (IC50) came out at 8.13 µM.

Take `NC1=NS(=O)(=O)Nc2nc(-c3ccc(Cl)cc3)c(-c3ccc(Cl)cc3)nc21`: the EC50 is more than 61.7 µM and the IC50 was more than 61.7 µM. For the molecule `CC1(C2CCC3(C)C(C2)C3Sc2ccccc2)OCCO1` (configuration not stated), the result was inactive. `COc1c(Cl)cc(C(=CCCCC(=O)N(C)OC)c2cc(Cl)c(OC)c(C(=O)N(C)OC)c2)cc1C(=O)N(C)OC`: the EC50 was more than 200 µM and the IC50 was determined as 30.9 µM. Turning to `CC(C)(C)C#C[P+](c1ccccc1)(c1ccccc1)c1ccccc1`, the EC50 is more than 2 µM and the IC50 was determined as 0.012 µM. As to `CCOC(=O)N/N=C(\Cc1ccccc1)OCC`, the EC50 was more than 200 µM and the IC50 is more than 200 µM.

For the molecule `CC(=O)Nc1cc(N=Nc2ccc(N=Nc3ccc(NC(=O)c4ccc(N)cc4)cc3C)cc2C)c(S(=O)(=O)O)cc1N=Nc1ccc(S(=O)(=O)O)cc1`, the EC50 is 12.9 µM and the IC50 is 155 µM.

For `CCO/C=C1\N=C(C(Cl)c2ccccc2)OC1=O` (configuration not stated), the EC50 was more than 135 µM and the IC50 was more than 135 µM.

With `Cc1nc2ccccc2c(=O)n1-c1ccccc1Cl`, the EC50 is more than 182 µM and the IC50 came out at 148 µM. On to `Cc1ccc(SSc2ccc(C(C)(C)C)cc2)cc1`, for which the EC50 is more than 200 µM and the IC50 was found to be 4.27 µM.

Regarding `COc1ccc(NC(=O)C(=O)C2CNC(=O)NC2=O)c(OC)c1` (configuration not stated), the EC50 is more than 209 µM and the IC50 was more than 209 µM. With `O=C1OC(c2ccccc2)N(C(=O)c2ccccc2)C1Cc1ccc(OCc2ccccc2)cc1` (configuration not stated), the EC50 is more than 200 µM and the IC50 stood at 85.1 µM. The like results for `CC(=O)Nc1ccc(/C=C(\C#N)c2ccc(C)cc2)cc1` were, in that order, more than 200 µM and more than 200 µM. For the molecule `CCCCN(C)CC(C(C)=O)C(c1ccccc1)c1c(O)c2ccccc2oc1=O` (configuration not stated), the EC50 was more than 67.6 µM and the IC50 came out at 60.3 µM. Take `[N-]=[N+]=Nc1cc(=O)n(-c2ccccc2)c2ccccc12`: the result was inactive. The same measure, in the same setting: next, `CCC[CH2][Sn]([CH2]CCC)([O]c1cccc2cccnc12)[O]c1cccc2cccnc12`: “inactive”. Turning to `CSc1nc(C)cc(=O)n1C1OC(COC(C)=O)C(OC(C)=O)C(OC(C)=O)C1OC(C)=O` (configuration not stated), the EC50 was more than 200 µM and the concentration for half-maximal inhibition (IC50) was more than 200 µM.

`COC(=O)[C@H]1ON2O[C@@H](O[C@H]3CCCC[C@@H]3C(C)(C)c3ccccc3)C[C@@H]3CC[C@H]1[C@@]32C`: the EC50 is more than 200 µM and the IC50 is more than 200 µM.

Turning to `CCN(CC)CCOC(=O)c1c(C)oc2cc3c(C(=O)OCCN(CC)CC)c(C)oc3cc12`, the EC50 was more than 200 µM and the IC50 came to 6.03 µM. The like results for `CC(C)(C)C1=CC(=N/N=c2\scc(-c3ccccc3)n2Cc2ccccc2)C=C(C(C)(C)C)C1=O` were, in that order, more than 5.62 µM and more than 5.62 µM. Regarding `CCCCCCCCCCNC(=S)OC`, the outcome was inactive. `C#C[C@@]1(O)CCCC2=CC3(CC[C@]21C)SCCS3`: the EC50 is more than 200 µM and the IC50 is 89.1 µM.
